Results from PubChem BioAssay AID248 (DTP/NCI, 2004).
Values joined by “and” are separate entries in the source; they are usually repeats but may differ in a detail not shown here. Equal entries are not always repeated. Inconclusive results and toxic doses are left out. Peptide text beside a SMILES is read from it. * marks the point of attachment. Trt = c1ccc(C(c2ccccc2)(c2ccccc2)*)cc1

Test system: L1210 leukemia ip in BDF1 mice, survival T/C
Test: NCI In Vivo Anticancer Drug Screen. Data for tumor model L1210 Leukemia (intraperitoneal) in B6D2F1 (BDF1) mice
Details: endpoint: mean survival time, higher = longer survival
Summary of the method: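 Read-out is survival time, reported as the treated-group measurement over the vehicle-control measurement.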

[1] = dose: 100.0 mg/kg/injection, schedule: Q01DX009 (ip), vehicle: Klucel (hydroxypropylcellulose) (HPC)
[2] = dose: 100.0 mg/kg/injection, schedule: Q04DX003 (ip), vehicle: Klucel (hydroxypropylcellulose) (HPC)
[3] = dose: 200.0 mg/kg/injection, schedule: Q01DX009 (ip), vehicle: Klucel (hydroxypropylcellulose) (HPC)
[4] = dose: 200.0 mg/kg/injection, schedule: Q04DX003 (ip), vehicle: Klucel (hydroxypropylcellulose) (HPC)
[5] = dose: 400.0 mg/kg/injection, schedule: Q01DX009 (ip), vehicle: Klucel (hydroxypropylcellulose) (HPC)
[6] = dose: 400.0 mg/kg/injection, schedule: Q04DX003 (ip), vehicle: Klucel (hydroxypropylcellulose) (HPC)
[7] = dose: 100.0 mg/kg/injection, schedule: Q04DX002 (ip), vehicle: Klucel (hydroxypropylcellulose) (HPC)
[8] = dose: 200.0 mg/kg/injection, schedule: Q04DX002 (ip), vehicle: Klucel (hydroxypropylcellulose) (HPC)
[9] = dose: 400.0 mg/kg/injection, schedule: Q04DX002 (ip), vehicle: Klucel (hydroxypropylcellulose) (HPC)

In the case of `Cc1cc(=O)n(Cc2ccccc2)c(O)c1C`, the T/C [1] is reported as 95 % of control, the T/C [2] is reported as 94 % of control and the T/C [3] is reported as 91 % of control. The T/C [4] was 94 % of control, the T/C [5] was 93 % of control and the T/C [6] was 98 % of control.
With `O=C1C=C(c2ccccc2)C(=O)O1` the T/C [7] was 95 % of control, the T/C [8] was 92 % of control and the T/C [9] was 90 % of control.
For `N#CC[CH2][Sn]([CH2]CC#N)([CH2]CC#N)[CH2]CC#N`, the T/C (dose: 100.0 mg/kg/injection, schedule: Q04DX002 (ip), vehicle: saline with Tween-80) was 100 % of control, the T/C (dose: 200.0 mg/kg/injection, schedule: Q04DX002 (ip), vehicle: saline with Tween-80) was 96 % of control and the T/C (dose: 400.0 mg/kg/injection, schedule: Q04DX002 (ip), vehicle: saline with Tween-80) was 96 % of control.
`CN(C)/C=C/C(=O)c1ccccc1[N+](=O)[O-]` was tested, and the T/C [1] was 97 % of control, the T/C [2] was 100 % of control and the T/C [3] was 100 % of control. For the same molecule, the T/C [4] was 105 % of control, the T/C [5] was 103 % of control and the T/C [6] was 100 % of control.
With `Clc1ccc2c[n+]3ccccc3cc2c1` the T/C (dose: 2.0 mg/kg/injection, schedule: Q01DX Z (ip), vehicle: carboxymethylcellulose (CMC)) was 102 % of control, the T/C (dose: 4.0 mg/kg/injection, schedule: Q01DX Z (ip), vehicle: carboxymethylcellulose (CMC)) was 92 % of control and the T/C (dose: 8.0 mg/kg/injection, schedule: Q01DX Z (ip), vehicle: carboxymethylcellulose (CMC)) was 103 % of control. The T/C (dose: 16.0 mg/kg/injection, schedule: Q01DX Z (ip), vehicle: carboxymethylcellulose (CMC)) was 105 % of control.
With `Cc1cc(C)c(C2=C(CC(=O)O)C(=O)c3ccccc3C2=O)c(C)c1` the T/C (dose: 100.0 mg/kg/injection, schedule: Q04DX003 (ip), vehicle: gum acacia) was 92 % of control, the T/C (dose: 200.0 mg/kg/injection, schedule: Q04DX003 (ip), vehicle: gum acacia) was 90 % of control and the T/C (dose: 400.0 mg/kg/injection, schedule: Q04DX003 (ip), vehicle: gum acacia) was 90 % of control.
With `Cc1cc(C)c([N+](=O)[O-])c(C)c1C(=O)C(C)C` the T/C (dose: 100.0 mg/kg/injection, schedule: Q01DX009 (ip), vehicle: other) was 105 % of control, the T/C [2] was 96 % of control and the T/C (dose: 200.0 mg/kg/injection, schedule: Q01DX009 (ip), vehicle: other) was 101 % of control. For the same molecule, the T/C [4] was 100 % of control, the T/C (dose: 400.0 mg/kg/injection, schedule: Q01DX009 (ip), vehicle: other) was 95 % of control and the T/C [6] was 94 % of control.
For `N#CSCc1cc(Cl)c(CSC#N)c(Cl)c1Cl`, the T/C (dose: 75.0 mg/kg/injection, schedule: Q01DX009 (ip), vehicle: saline) was 89 % of control, the T/C (dose: 150.0 mg/kg/injection, schedule: Q01DX009 (ip), vehicle: saline) was 96 % of control and the T/C (dose: 300.0 mg/kg/injection, schedule: Q01DX009 (ip), vehicle: saline) was 91 % of control.
For `CCCC(C(=O)OCC)C1=NC(C)(C)CC(C)O1` (stereo not given), the T/C (dose: 100.0 mg/kg/injection, schedule: Q01DX009 (ip), vehicle: alcohol) was 102 % of control, the T/C (dose: 200.0 mg/kg/injection, schedule: Q01DX009 (ip), vehicle: alcohol) was 105 % of control and the T/C (dose: 400.0 mg/kg/injection, schedule: Q01DX009 (ip), vehicle: alcohol) was 105 % of control.
With `COC(=O)C(NC(=O)C(N)CSC(c1ccccc1)(c1ccccc1)c1ccccc1)C(C)C` (stereo not given) (H-Cys(Trt)-Val-OMe; configuration not given here) the T/C (dose: 50.0 mg/kg/injection, schedule: Q01DX009 (ip), vehicle: saline) was 104 % of control and 118 % of control, the T/C (dose: 100.0 mg/kg/injection, schedule: Q01DX009 (ip), vehicle: saline) was 109 % of control and the T/C (dose: 400.0 mg/kg/injection, schedule: Q01DX009 (ip), vehicle: saline) was 104 % of control.
In the case of `CN(C)c1ccc(/C=C/c2ccc(N(C)C)cc2)cc1`, the T/C [1] is reported as 98 % of control, the T/C [2] is reported as 98 % of control and the T/C [3] is reported as 102 % of control. The T/C [4] was 94 % of control, the T/C [5] was 93 % of control and the T/C [6] was 100 % of control.
`O=C1CC(c2cccc(S(=O)(=O)O)c2)=NN1c1ccc([N+](=O)[O-])cn1` was tested, and the T/C (dose: 12.5 mg/kg/injection, schedule: Q04DX003 (ip), vehicle: saline) was 95 % of control, the T/C (dose: 25.0 mg/kg/injection, schedule: Q04DX003 (ip), vehicle: saline) was 95 % of control and the T/C (dose: 50.0 mg/kg/injection, schedule: Q04DX003 (ip), vehicle: saline) was 95 % of control.
For `COc1cc([N+](=O)[O-])ccc1NC(=O)Nc1c(C)n(C)n(-c2ccccc2)c1=O`, the T/C [1] was 97 % of control, the T/C [3] was 93 % of control and the T/C [5] was 93 % of control.
In the case of `CCOC(=O)C(C)S(=O)(=O)/C(=C\N1CCCCC1)CC` (stereo not given), the T/C [7] is reported as 109 % of control, the T/C (dose: 100.0 mg/kg/injection, schedule: Q04DX003 (ip), vehicle: other) is reported as 104 % of control and the T/C [8] is reported as 98 % of control. For the same molecule, the T/C (dose: 200.0 mg/kg/injection, schedule: Q04DX003 (ip), vehicle: other) was 96 % of control, the T/C [9] was 112 % of control and the T/C (dose: 400.0 mg/kg/injection, schedule: Q04DX003 (ip), vehicle: other) was 102 % of control.
With `CCCCCSP(=S)(C(C)C)C(C)C` the T/C (dose: 100.0 mg/kg/injection, schedule: Q01DX001 (ip), vehicle: saline with Tween-80) was 95 % of control, the T/C (dose: 200.0 mg/kg/injection, schedule: Q01DX001 (ip), vehicle: saline with Tween-80) was 93 % of control and the T/C (dose: 400.0 mg/kg/injection, schedule: Q01DX001 (ip), vehicle: saline with Tween-80) was 91 % of control.
With `COc1ccc(N=C(CCl)Nc2ccc(OC)cc2)cc1` the T/C [7] was 94 % of control, the T/C [8] was 88 % of control and the T/C [9] was 109 % of control.
For `CCc1ccc(NC(=O)Nc2ccc(Cl)c(Cl)c2)cc1`, the T/C [1] was 90 % of control, the T/C [3] was 103 % of control and the T/C [5] was 103 % of control.
In the case of `CCNc1nncs1`, the T/C (dose: 7.0 mg/kg/injection, schedule: Q03HX032 (ip), vehicle: saline) is reported as 97 % of control, the T/C (dose: 11.0 mg/kg/injection, schedule: Q03HX032 (ip), vehicle: saline) is reported as 104 % of control and the T/C (dose: 16.0 mg/kg/injection, schedule: Q03HX032 (ip), vehicle: saline) is reported as 105 % of control. The T/C (dose: 17.25 mg/kg/injection, schedule: Q01DX Z (ip), vehicle: carboxymethylcellulose (CMC)) was 102 % of control, the T/C (dose: 24.0 mg/kg/injection, schedule: Q03HX032 (ip), vehicle: saline) was 101 % of control and the T/C (dose: 27.0 mg/kg/injection, schedule: Q01DX015 (ip), vehicle: saline) was 106 % of control. The T/C (dose: 27.6 mg/kg/injection, schedule: Q01DX Z (ip), vehicle: carboxymethylcellulose (CMC)) was 100 % of control and 114 % of control, the T/C (dose: 34.5 mg/kg/injection, schedule: Q01DX Z (ip), vehicle: carboxymethylcellulose (CMC)) was 98 % of control and 101 % of control and the T/C (dose: 36.0 mg/kg/injection, schedule: Q03HX032 (ip), vehicle: saline) was 118 % of control. The T/C (dose: 40.0 mg/kg/injection, schedule: Q01DX015 (ip), vehicle: saline) was 103 % of control, the T/C (dose: 46.0 mg/kg/injection, schedule: Q01DX Z (ip), vehicle: carboxymethylcellulose (CMC)) was 100 % of control and 107 % of control and the T/C (dose: 60.0 mg/kg/injection, schedule: Q01DX015 (ip), vehicle: saline) was 108 % of control. For the same molecule, the T/C (dose: 64.0 mg/kg/injection, schedule: Q02DX010 (ip), vehicle: carboxymethylcellulose (CMC)) was 117 % of control, the T/C (dose: 75.0 mg/kg/injection, schedule: Q01DX Z (ip), vehicle: saline) was 170 % of control and the T/C (dose: 96.0 mg/kg/injection, schedule: Q02DX010 (ip), vehicle: carboxymethylcellulose (CMC)) was 123 % of control. For the same molecule, the T/C (dose: 103.5 mg/kg/injection, schedule: Q01DX Z (ip), vehicle: carboxymethylcellulose (CMC)) was 123 % of control, the T/C (dose: 138.0 mg/kg/injection, schedule: Q01DX Z (ip), vehicle: carboxymethylcellulose (CMC)) was 112 % of control and the T/C (dose: 150.0 mg/kg/injection, schedule: Q01DX Z (ip), vehicle: saline) was 176 % of control. For the same molecule, the T/C (dose: 150.0 mg/kg/injection, schedule: Q01DX Z (oral), vehicle: saline) was 115 % of control, the T/C (dose: 265.0 mg/kg/injection, schedule: Q01DX001 (ip), vehicle: saline) was 104 % of control and the T/C (dose: 270.0 mg/kg/injection, schedule: Q01DX001 (ip), vehicle: saline) was 106 % of control. The T/C (dose: 300.0 mg/kg/injection, schedule: Q01DX Z (oral), vehicle: saline) was 98 % of control, the T/C (dose: 337.0 mg/kg/injection, schedule: Q02DX010 (ip), vehicle: carboxymethylcellulose (CMC)) was 120 % of control and the T/C (dose: 400.0 mg/kg/injection, schedule: Q01DX001 (ip), vehicle: saline) was 109 % of control. For the same molecule, the T/C (dose: 562.0 mg/kg/injection, schedule: Q02DX010 (ip), vehicle: carboxymethylcellulose (CMC)) was 112 % of control and 76 % of control, the T/C (dose: 562.5 mg/kg/injection, schedule: Q02DX010 (ip), vehicle: carboxymethylcellulose (CMC)) was 84 % of control and 88 % of control and the T/C (dose: 600.0 mg/kg/injection, schedule: Q01DX001 (ip), vehicle: saline) was 117 % of control. For the same molecule, the T/C (dose: 600.0 mg/kg/injection, schedule: Q01DX Z (oral), vehicle: saline) was 87 % of control.
